In patent US8110575B2, “Compounds” (Boehringer Ingelheim International GmbH, priority 2007, dated 2012) one finds Ki data, which are given here for 4 compounds.

pKi: −log10 of the molar value.

The term pKi denotes −log10 of the Ki, conventionally taken in molar units.

This experiment deals with T1, human CGRP receptor (Homo sapiens, UniProt O60894+Q16602).
T1 construct: SK-N-MC membranes (˜20 μg protein) are incubated for 180 minutes at ambient temperature; endogenous in cells; host or cells: SK-N-MC cells (membrane preparation)
T1 sequence (Q16602 23-461): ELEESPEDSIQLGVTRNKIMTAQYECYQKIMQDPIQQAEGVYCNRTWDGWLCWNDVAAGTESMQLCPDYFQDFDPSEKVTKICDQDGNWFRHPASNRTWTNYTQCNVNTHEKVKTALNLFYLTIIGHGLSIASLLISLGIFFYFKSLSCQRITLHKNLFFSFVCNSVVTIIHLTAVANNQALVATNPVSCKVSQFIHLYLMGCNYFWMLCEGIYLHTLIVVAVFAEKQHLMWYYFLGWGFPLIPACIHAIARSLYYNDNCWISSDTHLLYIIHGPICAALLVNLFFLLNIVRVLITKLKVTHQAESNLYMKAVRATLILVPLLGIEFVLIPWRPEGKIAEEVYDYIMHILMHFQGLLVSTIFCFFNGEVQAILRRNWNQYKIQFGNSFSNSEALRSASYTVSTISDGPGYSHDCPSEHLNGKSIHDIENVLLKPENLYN
T1 sequence (O60894 27-148): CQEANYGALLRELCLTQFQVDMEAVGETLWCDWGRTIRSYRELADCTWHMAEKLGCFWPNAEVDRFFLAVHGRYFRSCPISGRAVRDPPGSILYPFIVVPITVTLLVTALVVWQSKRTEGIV
Nature of the experiment: Binding studies with SK-N-MC cells (expressing the human CGRP receptor). Particulars: SK-N-MC membranes, 125I-iodotyrosyl-CGRP displacement. As for the experimental part:
A. Binding Studies with SK-N-MC Cells (Expressing the Human CGRP Receptor)
SK-N-MC membranes (˜20 μg protein) are incubated for 180 minutes at ambient temperature with 50 pM ^125I-iodotyrosyl-Calcitonin-Gene-Related Peptide and increasing concentrations of the test substances in a total volume of […] (assay buffer: 10 mM tris, 50 mM NaCl, 5 mM MgCl2, 1 mM EDTA, pH=7.4). The incubation is ended by rapid filtration through GF/B-glass fibre filters treated with polyethyleneimine (0.1%) using a cell harvester. The protein-bound radioactivity is measured using a gamma counter. Non-specific binding is defined as the bound radioactivity after the presence of 1 μM BIBN4096BS during incubation.
The concentration binding curves are analysed using computer-aided non-linear curve fitting.
`O=C1Nc2ccccc2C2(CCN(c3cc(C(=O)N4CCc5ccccc54)ncn3)CC2)O1` [(3)] gave a pKi of 6.27.

As to `O=C(c1cc(Nc2ccc3c(c2)CC2(C3)C(=O)Nc3ncccc32)ncn1)N1CCc2ccccc21` (stereo not shown) [(1)], the pKi is 7.82.

The compound `CN1C(=O)NC(=O)C12Cc1ccc(Nc3cc(C(=O)N4CCc5ccccc54)ncn3)cc1C2` (stereo not shown) [(9)] showed a pKi of 6.88.

With `O=C(c1cc(Nc2ccc3c(c2)CC2(C3)C(=O)Nc3ncccc32)ncn1)N(CC(F)(F)F)c1ccccc1` (stereo not shown) [(6)], the pKi was 6.92.
